Results on three compounds are retold here after US8278465B2, “Coumarin derivative having antitumor activity” (Chugai Seiyaku Kabushiki Kaisha, priority 2006, dated 2012).

Data set [1] is described as follows: Calculation of AUC value (plasma concentration after oral administration). The class given is in vivo. The note with it: BALB/c (nu/nu), mouse, mice, plasma 15 min to 24 h, trapezoidal method, read-out: AUC (area under the blood concentration-time curve). As to the method:
The AUC (area under the blood concentration-time curve) values of the compounds and salts shown in Table 2 (only compound 1j-2-16-2 is Na salt; the others are free form) were calculated by administering the test substance to an animal and measuring its concentration in plasma. As the animals, BALB/c (nu/nu) mice (4 to 6 weeks old) procured from Japan Charles River Laboratories were used after a one-week taming period. As for the test substances other than Comp. 1, 5 mg/mL of the substance solution was given at 0.2 mL/10 g body weight (dose of the test substance: 100 mg/kg body weight). As for Comp. 1, 10 mg/mL of the substance solution was given at 0.2 mL/10 g body weight (dose of the test substance: 200 mg/kg body weight). Administration of the substance solution to a mouse was performed forcibly using an oral feeding tube. Blood was collected from the eye pit 15 minutes, 2 hours, 7 hours and 24 hours after administration of the substance solution, using a hematocrit tube treated with heparin. Paraoxon (final concentration: 1 mM) was added to the collected blood as a stabilizer, the mixture was centrifuged at 10000 rpm for 3 minutes, and plasma was separated. The plasma was stored in a freezer set to −80° C. until the time of measurement. The measurement was carried out as follows. 100 μL of distilled water to which the internal standard substance (a structural homolog, concentration adjusted appropriately depending on the compound used) had been added was added to 5 μL of the plasma, and then, a measurement sample was prepared through solid phase extraction processing using an Oasis HLB μElution Plate (Waters), and was analyzed by LC/MS/MS. The plasma concentration was calculated using a calibration curve prepared based on the ratio of standard substance to internal standard substance in control plasma of mice. The AUC was calculated from the data of plasma concentration of the drug by the trapezoidal method using Microsoft Excel 2003 (Microsoft).

The test system of data set [2] is human colon cancer cell line HCT116. The experiment in a line: Measurement of cell proliferation inhibitory activity (Cell Counting Kit-8). The note with it: Homo sapiens, HCT-116, 96 h, HCT116, 4 days incubation, read-out: IC50 (50% proliferation inhibitory concentration). The format is cell-based. As to the method:
The cell proliferation inhibitory activities of the compounds and salts shown in Tables 1-1, 1-2 and Table 2 were measured as follows, using the human colon cancer cell line HCT116 (American Type Culture Collection, VA, USA). 2000 to 3000 cells per well of the human colon cancer cell line HCT116 was placed in a 96-well culture plate, a predetermined concentration (0.00038 μM, 0.00076 μM, 0.0015 μM, 0.0031 μM, 0.0061 μM, 0.012 μM, 0.024 μM, 0.049 μM, 0.098 μM, 0.195 μM, 0.39 μM, 0.78 μM, 1.56 μM, 3.13 μM, 6.25 μM, 12.5 μM, 25 μM or 50 μM) of the test substance was added thereto, and the mixture was then incubated at 37° C. under 5% CO2 environment for 4 days. On day 4 of incubation, the Cell Counting Kit-8 solution (Dojindo Laboratories) was added, the absorbance (measurement wavelength: 450 nm; reference wavelength: 615 nm) was measured following the protocol attached to the kit, and the 50% proliferation inhibitory concentration (IC50) was calculated.

Read-outs that look alike come from different tables or passages of the source.

As to `CCS(=O)(=O)Nc1cccc(Cc2c(C)c3cc(Cl)c(Oc4ncccn4)cc3oc2=O)c1` [Comp. 1, reference compound], in data set [1] (200 mg/kg body weight (Comp. 1)), the AUC was 97.6 µM·h. For the same compound, the IC50 in data set [2] (Table 1-2) was determined as 160 nM.

Consider `CNS(=O)(=O)Nc1cccc(Cc2c(C)c3ccc(Oc4nccs4)cc3oc2=O)c1` [Compound 1j-3-1-2, 3-{3-(Methylaminosulfonyl)aminobenzyl}-4-methyl-7-(thiazol-2-yloxy)-2-oxo-2H-1-benzopyran], for which the AUC in data set [1] (100 mg/kg body weight) is 199 µM·h. The IC50 in data set [2] (Table 2) was 164 nM.

Consider `CNC(=O)CS(=O)(=O)Nc1cccc(Cc2c(C)c3ccc(Oc4nccs4)cc3oc2=O)c1F` [Compound 1o-3-4-2, 2-{2-Fluoro-3-[4-methyl-2-oxo-7-(thiazol-2-yloxy)-2H-1-benzopyran-3-ylmethyl]phenylsulfamoyl}-N-methyl-acetamide], for which the AUC in data set [1] (100 mg/kg body weight) is 367 µM·h. In addition, the IC50 in data set [2] (Table 2) turned out to be 325 nM.
